# Measurements from ChEMBL document CHEMBL3822398, “Design, synthesis and in vitro biological evaluation of short-chain C12-sphinganine and its 1,2,3-triazole analogs as potential antimicrobial and anti-biofilm agents” (Eur J Med Chem, 2016).
# Activity calls are given as the source filed them. The rule behind the calls is not given here.
# Assays:
# Candida albicans [1] = test: Antifungal activity against Candida albicans MTCC 183 incubated for 24 hrs at 30 degC by well diffusion method; assay type: functional; conditions: MTCC 183, 24 h
# Candida albicans [2] = test: Antifungal activity against Candida albicans MTCC 227 incubated for 24 hrs at 30 degC by well diffusion method; assay type: functional; conditions: MTCC 227, 24 h
# Candida albicans [3] = test: Antifungal activity against Candida albicans MTCC 854 incubated for 24 hrs at 30 degC by well diffusion method; assay type: functional; conditions: MTCC 854, 24 h
# Candida albicans [4] = test: Antifungal activity against Candida albicans MTCC 1637 incubated for 24 hrs at 30 degC by well diffusion method; assay type: functional; conditions: MTCC 1637, 24 h
# Candida albicans [5] = test: Antifungal activity against Candida albicans MTCC 3017 incubated for 24 hrs at 30 degC by well diffusion method; assay type: functional; conditions: MTCC 3017, 24 h
# Candida albicans [6] = test: Antifungal activity against Candida albicans MTCC 3018 incubated for 24 hrs at 30 degC by well diffusion method; assay type: functional; conditions: MTCC 3018, 24 h
# Candida albicans [7] = test: Antifungal activity against Candida albicans MTCC 3958 incubated for 24 hrs at 30 degC by well diffusion method; assay type: functional; conditions: MTCC 3958, 24 h
# Candida albicans [8] = test: Antifungal activity against Candida albicans MTCC 4748 incubated for 24 hrs at 30 degC by well diffusion method; assay type: functional; conditions: MTCC 4748, 24 h
# Candida albicans [9] = test: Antifungal activity against Candida albicans MTCC 7315 incubated for 24 hrs at 30 degC by well diffusion method; assay type: functional; conditions: MTCC 7315, 24 h
# Candida parapsilosis [10] = test: Antifungal activity against Candida parapsilosis MTCC 1744 incubated for 24 hrs at 30 degC by well diffusion method; assay type: functional; conditions: Lodderomyces parapsilosis, MTCC 1744, 24 h
# [Candida] aaseri [11] = Antifungal activity against Candida aaseri MTCC 1962 incubated for 24 hrs at 30 degC by well diffusion method; assay type: functional; conditions: Yamadazyma aaseri, MTCC 1962, 24 h
# Nakaseomyces glabratus [12] = test: Antifungal activity against Candida glabrata MTCC 3019 incubated for 24 hrs at 30 degC by well diffusion method; assay type: functional; conditions: MTCC 3019, 24 h
# Pichia kudriavzevii [13] = test: Antifungal activity against Candida krusei MTCC 3020 incubated for 24 hrs at 30 degC by well diffusion method; assay type: functional; conditions: MTCC 3020, 24 h
# Pichia sporocuriosa [14] = test: Antifungal activity against Issatchenkia hanoiensis MTCC 4755 incubated for 24 hrs at 30 degC by well diffusion method; assay type: functional; conditions: MTCC 4755, 24 h
# Candida albicans [15] = test: Fungicidal activity against Candida albicans MTCC 183 incubated for 24 hrs; assay type: functional; conditions: MTCC 183, 24 h
# Candida albicans [16] = test: Fungicidal activity against Candida albicans MTCC 227 incubated for 24 hrs; assay type: functional; conditions: MTCC 227, 24 h
# Candida albicans [17] = test: Fungicidal activity against Candida albicans MTCC 854 incubated for 24 hrs; assay type: functional; conditions: MTCC 854, 24 h
# Candida albicans [18] = test: Fungicidal activity against Candida albicans MTCC 1637 incubated for 24 hrs; assay type: functional; conditions: MTCC 1637, 24 h
# Candida albicans [19] = test: Fungicidal activity against Candida albicans MTCC 3017 incubated for 24 hrs; assay type: functional; conditions: MTCC 3017, 24 h
# Candida albicans [20] = test: Fungicidal activity against Candida albicans MTCC 3018 incubated for 24 hrs; assay type: functional; conditions: MTCC 3018, 24 h
# Candida albicans [21] = test: Fungicidal activity against Candida albicans MTCC 3958 incubated for 24 hrs; assay type: functional; conditions: MTCC 3958, 24 h
# Candida albicans [22] = test: Fungicidal activity against Candida albicans MTCC 4748 incubated for 24 hrs; assay type: functional; conditions: MTCC 4748, 24 h
# Candida albicans [23] = test: Fungicidal activity against Candida albicans MTCC 7315 incubated for 24 hrs; assay type: functional; conditions: MTCC 7315, 24 h
# Candida parapsilosis [24] = test: Fungicidal activity against Candida parapsilosis MTCC 1744 incubated for 24 hrs; assay type: functional; conditions: Lodderomyces parapsilosis, MTCC 1744, 24 h
# [Candida] aaseri [25] = Fungicidal activity against Candida aaseri MTCC 1962 incubated for 24 hrs; assay type: functional; conditions: Yamadazyma aaseri, MTCC 1962, 24 h
# Nakaseomyces glabratus [26] = test: Fungicidal activity against Candida glabrata MTCC 3019 incubated for 24 hrs; assay type: functional; conditions: MTCC 3019, 24 h
# Pichia kudriavzevii [27] = test: Fungicidal activity against Candida krusei MTCC 3020 incubated for 24 hrs; assay type: functional; conditions: MTCC 3020, 24 h
# Pichia sporocuriosa [28] = test: Fungicidal activity against Issatchenkia hanoiensis MTCC 4755 incubated for 24 hrs; assay type: functional; conditions: MTCC 4755, 24 h
# Candida albicans [29] = test: Induction of ROS accumulation in Candida albicans MTCC 227 sessile cells at 2 to 8 ug/ml incubated for 24 hrs by DCFH-DA dye based microplate reader analysis; assay type: functional, organism-based
# Staphylococcus aureus [30] = test: Antibacterial activity against Staphylococcus aureus MTCC 96 incubated for 24 hrs at 37 degC by well diffusion method; assay type: functional; conditions: MTCC 96, 24 h
# Bacillus subtilis [31] = test: Antibacterial activity against Bacillus subtilis MTCC 121 incubated for 24 hrs at 37 degC by well diffusion method; assay type: functional; conditions: MTCC 121, 24 h
# Staphylococcus aureus [32] = test: Antibacterial activity against Staphylococcus aureus MLS16 MTCC 2940 incubated for 24 hrs at 37 degC by well diffusion method; assay type: functional; conditions: MLS16 MTCC 2940, 24 h
# Micrococcus luteus [33] = test: Antibacterial activity against Micrococcus luteus MTCC 2470 incubated for 24 hrs at 37 degC by well diffusion method; assay type: functional; conditions: MTCC 2470, 24 h
# Raoultella planticola [34] = test: Antibacterial activity against Klebsiella planticola MTCC 530 incubated for 24 hrs at 37 degC by well diffusion method; assay type: functional; conditions: MTCC 530, 24 h
# Escherichia coli [35] = test: Antibacterial activity against Escherichia coli MTCC 739 incubated for 24 hrs at 37 degC by well diffusion method; assay type: functional; conditions: MTCC 739, 24 h
# Pseudomonas aeruginosa = test: Antibacterial activity against Pseudomonas aeruginosa MTCC 2453 incubated for 24 hrs at 37 degC by well diffusion method; assay type: functional; conditions: MTCC 2453, 24 h
# Staphylococcus aureus [36] = test: Bactericidal activity against Staphylococcus aureus MTCC 96 incubated for 24 hrs; assay type: functional; conditions: MTCC 96, 24 h
# Bacillus subtilis [37] = test: Bactericidal activity against Bacillus subtilis MTCC 121 incubated for 24 hrs; assay type: functional; conditions: MTCC 121, 24 h
# Staphylococcus aureus [38] = test: Bactericidal activity against Staphylococcus aureus MLS16 MTCC 2940 incubated for 24 hrs; assay type: functional; conditions: MLS16 MTCC 2940, 24 h
# Micrococcus luteus [39] = test: Bactericidal activity against Micrococcus luteus MTCC 2470 incubated for 24 hrs; assay type: functional; conditions: MTCC 2470, 24 h
# Raoultella planticola [40] = test: Bactericidal activity against Klebsiella planticola MTCC 530 incubated for 24 hrs; assay type: functional; conditions: MTCC 530, 24 h
# Escherichia coli [41] = test: Bactericidal activity against Escherichia coli MTCC 739 incubated for 24 hrs; assay type: functional; conditions: MTCC 739, 24 h
compound,measurement,setting,value
Clc1ccc(COC(Cn2ccnc2)c2ccc(Cl)cc2Cl)c(Cl)c1 (stereo not given) [MICONAZOLE],MIC,Candida albicans [1],7.8 mg/L
same,MIC,Candida albicans [2],7.8 mg/L
same,MIC,Candida albicans [3],7.8 mg/L
same,MIC,Candida albicans [4],7.8 mg/L
same,MIC,Candida albicans [5],7.8 mg/L
same,MIC,Candida albicans [6],7.8 mg/L
same,MIC,Candida albicans [7],7.8 mg/L
same,MIC,Candida albicans [8],7.8 mg/L
same,MIC,Candida albicans [9],7.8 mg/L
same,MIC,Candida parapsilosis [10],7.8 mg/L
same,MIC,[Candida] aaseri [11],7.8 mg/L
same,MIC,Nakaseomyces glabratus [12],7.8 mg/L
same,MIC,Pichia kudriavzevii [13],7.8 mg/L
same,MIC,Pichia sporocuriosa [14],7.8 mg/L
same,MFC,Candida albicans [15],7.8 mg/L
same,MFC,Candida albicans [16],15.6 mg/L
same,MFC,Candida albicans [17],15.6 mg/L
same,MFC,Candida albicans [18],15.6 mg/L
same,MFC,Candida albicans [19],7.8 mg/L
same,MFC,Candida albicans [20],7.8 mg/L
same,MFC,Candida albicans [21],15.6 mg/L
same,MFC,Candida albicans [22],7.8 mg/L
same,MFC,Candida albicans [23],7.8 mg/L
same,MFC,Candida parapsilosis [24],7.8 mg/L
same,MFC,[Candida] aaseri [25],7.8 mg/L
same,MFC,Nakaseomyces glabratus [26],15.6 mg/L
same,MFC,Pichia kudriavzevii [27],7.8 mg/L
same,MFC,Pichia sporocuriosa [28],7.8 mg/L
same,Activity,Candida albicans [29],Active
CCCCCCCCC[C@@H](O)[C@H](CO)n1cc(-c2ccc3cc(OC)ccc3c2)nn1,MIC,Staphylococcus aureus [30],> 250 mg/L
same,MIC,Bacillus subtilis [31],> 250 mg/L
same,MIC,Staphylococcus aureus [32],> 250 mg/L
same,MIC,Micrococcus luteus [33],> 250 mg/L
same,MIC,Raoultella planticola [34],> 250 mg/L
same,MIC,Escherichia coli [35],> 250 mg/L
same,MIC,Pseudomonas aeruginosa,> 250 mg/L
CCCCCCCCC[C@@H](O)[C@H](CO)n1cc(CCO)nn1,MIC,Staphylococcus aureus [30],31.2 mg/L
same,MIC,Bacillus subtilis [31],31.2 mg/L
same,MIC,Staphylococcus aureus [32],> 250 mg/L
same,MIC,Micrococcus luteus [33],15.6 mg/L
same,MIC,Raoultella planticola [34],> 250 mg/L
same,MIC,Escherichia coli [35],> 250 mg/L
same,MIC,Pseudomonas aeruginosa,> 250 mg/L
same,MBC,Staphylococcus aureus [36],31.2 mg/L
same,MBC,Bacillus subtilis [37],31.2 mg/L
same,MBC,Staphylococcus aureus [38],> 250 mg/L
same,MBC,Micrococcus luteus [39],31.2 mg/L
same,MBC,Raoultella planticola [40],> 250 mg/L
same,MBC,Escherichia coli [41],> 250 mg/L
CCCCCCCCC[C@@H](O)[C@H](CO)n1cc(CO)nn1,MIC,Staphylococcus aureus [30],> 250 mg/L
same,MIC,Bacillus subtilis [31],31.2 mg/L
same,MIC,Staphylococcus aureus [32],> 250 mg/L
same,MIC,Micrococcus luteus [33],7.8 mg/L
same,MIC,Raoultella planticola [34],> 250 mg/L
same,MIC,Escherichia coli [35],> 250 mg/L
same,MIC,Pseudomonas aeruginosa,> 250 mg/L
same,MBC,Staphylococcus aureus [36],> 250 mg/L
same,MBC,Bacillus subtilis [37],31.2 mg/L
same,MBC,Staphylococcus aureus [38],> 250 mg/L
same,MBC,Micrococcus luteus [39],15.6 mg/L
same,MBC,Raoultella planticola [40],> 250 mg/L
same,MBC,Escherichia coli [41],> 250 mg/L
CCCCCCCCC[C@@H](O)[C@H](CO)n1cc(CCCCCC)nn1,MIC,Staphylococcus aureus [30],3.9 mg/L
same,MIC,Bacillus subtilis [31],7.8 mg/L
same,MIC,Staphylococcus aureus [32],> 250 mg/L
same,MIC,Micrococcus luteus [33],7.8 mg/L
same,MIC,Raoultella planticola [34],> 250 mg/L
same,MIC,Escherichia coli [35],> 250 mg/L
same,MIC,Pseudomonas aeruginosa,> 250 mg/L
same,MBC,Staphylococcus aureus [36],3.9 mg/L
same,MBC,Bacillus subtilis [37],15.6 mg/L
same,MBC,Staphylococcus aureus [38],> 250 mg/L
same,MBC,Micrococcus luteus [39],15.6 mg/L
same,MBC,Raoultella planticola [40],> 250 mg/L
same,MBC,Escherichia coli [41],> 250 mg/L
